Measurements taken from PubChem BioAssay (NCI).
Values joined by “and” are separate entries in the source; they are usually repeats but may differ in a detail not shown here. Equal entries are not always repeated.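 1) Cells in 96-well plates. 2) Compound, 48 h, 5 concentrations. 3) Linear interpolation between surrounding doses. 4) Unreached endpoint = highest concentration. GI50: concentration for 50% inhibition of growth. TGI: total growth inhibition.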

Experiments:
Assay in all cases: NCI-60 cell line screen, 48 h
NCI-H522 lung = tested on: NCI-H522 lung
LOX IMVI melanoma = tested on: LOX IMVI melanoma
OVCAR-4 ovarian = tested on: OVCAR-4 ovarian
KM12 colon = tested on: KM12 colon
786-0 renal = tested on: 786-0 renal
T-47D breast = tested on: T-47D breast
HCT-15 colon = tested on: HCT-15 colon
HS 578T breast = tested on: HS 578T breast
RXF 393 renal = tested on: RXF 393 renal
HT29 colon = tested on: HT29 colon

Row | SMILES | GI50 (NCI-H522 lung) | TGI (NCI-H522 lung) | GI50 (LOX IMVI melanoma) | TGI (LOX IMVI melanoma) | GI50 (OVCAR-4 ovarian) | TGI (OVCAR-4 ovarian) | GI50 (KM12 colon) | TGI (KM12 colon) [µM] | GI50 (786-0 renal) | TGI (786-0 renal) | GI50 (T-47D breast) | TGI (T-47D breast) | GI50 (HCT-15 colon) [nM] | TGI (HCT-15 colon) [µM] | GI50 (HS 578T breast) | TGI (HS 578T breast) | GI50 (RXF 393 renal) | TGI (RXF 393 renal) | GI50 (HT29 colon) | TGI (HT29 colon) [µM]
1 | COc1ccc(Nn2c(SCC(=O)Nc3nc(-c4ccc(Cl)cc4)cs3)nc(C)c2C)cc1 | 5050 nM | > 100 µM | 3020 nM | 44.2 µM | 4.02 µM | > 100 µM | 1840 nM | 11.1 | 3460 nM | 18.2 µM | 1230 nM | 8.04 µM | 4790 | > 100 | 11800 nM | > 100 µM | 3530 nM | 9.64 µM | 4610 nM | 50.4
2 | C=C1C[C@](OC)([C@H](O)C(=O)N[C@@H](OC)[C@@H]2C[C@@H](O)C(C)(C)[C@@H](C[C@@H](COC)OC)O2)O[C@H](C)[C@@H]1C | 1.94 nM | 0.00725 µM | 1.21 nM | 0.00295 µM | 0.00227 µM | 0.0198 µM | 0.861 nM | 0.00339 | 2.2 nM | 0.0119 µM | 0.814 nM | 0.00548 µM | 2.84 | 0.0248 | 1.36 nM | 0.0041 µM | 1.59 nM | 0.00465 µM | 0.865 nM | 0.0177
3 | CC(C)CCOc1ccc(-c2n[nH]c(C(F)(F)F)c2-c2cncc(C#N)c2)c(O)c1 | 1800 nM | 10 µM | 2770 nM | 8.98 µM | 3.48 µM | > 100 µM | 3330 nM | > 100 | 2960 nM | 13.1 µM | 1560 nM | 6.54 µM | 2400 | 13.4 | 2910 nM | 21.4 µM | 1960 nM | 6.15 µM | 2920 nM | 14.1
4 | CCn1c2c(n(CC)c1=S)-c1c(n(CC)c(=S)n1CC)SSSS2 | – | 3.76 µM | – | 23.2 µM | – | 20.1 µM | – | 35.9 | – | 28.6 µM | – | 5.16 µM | – | 11.8 | – | 91.1 µM | – | 7.55 µM | – | 29.2
5 | NC(CSC(c1ccccc1)(c1ccccc1)c1ccc(Cl)cc1)C(=O)O (configuration not stated) | 128 nM | 3.71 µM | 682 nM | 36.3 µM | 11.1 µM | > 100 µM | 322 nM | 15.1 | 1360 nM | 30 µM | 376 nM | 42 µM | 362 | 52.9 | 114 nM | 3.83 µM | 59.4 nM | 4.52 µM | 347 nM | 6.92
6 | CC(=O)c1c(C(F)(F)F)n([O-])c2ccc(Cl)cc2[n+]1=O | 2500 nM | 9.62 µM | 652 nM | 3.92 µM | 19 µM | 50.8 µM | 364 nM | 2.39 | 55.1 nM | 0.382 µM | 2310 nM | > 40.4 µM | 649 | 4.05 | 6650 nM | > 26.5 µM | 5110 nM | 25.4 µM | 1400 nM | > 100
7 | CC(C)C1OC(=O)C=C1Sc1ccccc1 (configuration not stated) | – | > 100 µM | – | > 100 µM | – | > 100 µM | – | > 100 | – | > 100 µM | – | > 100 µM | – | > 100 | – | > 100 µM | – | > 100 µM | – | > 100
8 | NS(=O)(=O)c1cc2c(cc1Cl)NC(Cc1ccccc1)NS2(=O)=O (configuration not stated) | – | > 100 µM | – | > 100 µM | – | > 100 µM | – | > 100 | – | > 100 µM | – | > 100 µM | – | > 100 | – | > 100 µM | – | > 100 µM | – | > 100
9 | O=C1C(Br)=CC2(C=C1Br)CCN=c1c2c(O)c2nc3ccccc3c3ccnc1c23 | 727 nM | 1.49 µM | 1240 nM | 4.35 µM | 0.788 µM | 2.22 µM | 2420 nM | 8.67 | 987 nM | 2.37 µM | 1130 nM | 3.76 µM | 829 | 1.59 | 4000 nM | 17.1 µM | 1110 nM | 4.36 µM | 1070 nM | 3.02
10 | C1CCN(CCC2CCCCN2)CC1 (configuration not stated) | – | > 100 µM | – | > 100 µM | – | > 100 µM | – | > 100 | – | > 100 µM | – | > 100 µM | – | > 100 | – | > 100 µM | – | > 100 µM | – | > 100
11 | CCN(CC)c1cc(/C=C/c2ccc(OC)c(OC)c2)nc2cc(F)c(F)cc12 | 6350 nM | > 100 µM | 7240 nM | 37.7 µM | 27 µM | > 100 µM | > 100000 nM | > 100 | 1980 nM | 4.77 µM | 3380 nM | 18.4 µM | 22800 | > 100 | 3090 nM | 12.3 µM | 1800 nM | 4.01 µM | – | –
12 | Cc1cccc(Oc2nccc(-c3c(-c4ccc(F)cc4)ncn3C3CCNCC3)n2)c1C | 9840 nM | > 16.2 µM | 5790 nM | > 15.1 µM | 7.9 µM | > 25 µM | 11200 nM | > 23.8 | 8220 nM | > 18 µM | 4920 nM | 10.6 µM | 8120 | > 25 | 8900 nM | > 16.2 µM | 3530 nM | 9.17 µM | 4680 nM | 10.8
13 | CC1/C=C/C=C/C=C/C=C/C=C/C=C/C=C/C(O[C@@H]2O[C@H](C)[C@H](O)[C@@H](O)[C@@H]2N)CC(O)C(C(=O)O)C(O)CC(=O)CC(O)CC(O)CC(O)CC(=O)CCCC(=O)CC(=O)OC1C(C)CC(C)C(O)CC(=O)c1ccc(N)cc1 (some centres not stated) | 51.2 nM and 161 nM | 0.0986 µM and 0.314 µM | 55.5 nM and 166 nM | 0.101 µM and 0.305 µM | 0.0693 µM and 0.246 µM | 0.154 µM and 0.697 µM | 69.4 nM and 574 nM | – | 59.1 nM and 172 nM | 0.111 µM and 0.346 µM | 72.2 nM and 318 nM | 0.188 µM and 1.24 µM | – | – | 76.5 nM and 329 nM | 0.211 µM and 1.58 µM | 46.9 nM and 156 nM | 0.0894 µM and 0.304 µM | 58.5 nM and 345 nM | –
14 | O=C(O)C1C(C(=O)Nc2ccc3c(c2)Cc2ccccc2-3)C2(Cl)C(Cl)=C(Cl)C1(Cl)C2(Cl)Cl (configuration not stated) | – | 39.2 µM | – | 32.3 µM | – | > 100 µM | – | 39 | – | > 100 µM | – | > 100 µM | – | 48.5 | – | 49.2 µM | – | 43.1 µM | – | 41.7
15 | ClC1=C(Cl)C(Cl)=C(Cl)C1=C/C=C/c1ccccc1 | 216 nM | 0.562 µM | 184 nM | 0.407 µM | 0.337 µM | 19.8 µM | 272 nM | 0.684 | 444 nM | 2.05 µM | 153 nM | 0.631 µM | 179 | 0.391 | 208 nM | 0.685 µM | 186 nM | 0.36 µM | 319 nM | 1.16
16 | CCSCC(N)C(=O)O (configuration not stated) | – | > 100 µM | – | > 100 µM | – | > 100 µM | – | > 100 | – | > 100 µM | – | > 100 µM | – | > 100 | – | > 100 µM | – | > 100 µM | – | > 100
17 | CC(C)[C@@]12C[C@@H](OC(=O)[C@H]3CO3)[C@@](C)(O1)[C@@H]1CC[C@@H](C)[C@H]1[C@@H]2OC(=O)/C=C/c1ccccc1 | 14300 nM | 32.7 µM | 12600 nM | 46.3 µM | 11.5 µM | 30.2 µM | 19100 nM | > 60 | 3550 nM | 22 µM | 8110 nM | > 49.9 µM | 11100 | > 100 | 73.6 nM | 0.501 µM | 1300 nM | 17.8 µM | 27600 nM | > 100
18 | CCCCCCCCCCCCCCCCCC1=NCCN1CS(=O)(=O)O | 24500 nM | 54 µM | 2860 nM | 12.5 µM | 14.9 µM | 33 µM | 2780 nM | 8.49 | 17700 nM | 35.3 µM | 20000 nM | 43.1 µM | 4490 | 23.5 | 11600 nM | 40 µM | 15400 nM | 35.6 µM | 4440 nM | 19.9
19 | CN(C)c1ccc(/C=C(/NC(=O)c2ccccc2)c2nc3ccc(Cl)cc3[nH]2)cc1 | – | > 74.1 µM | – | > 70.6 µM | – | > 100 µM | – | > 100 | – | > 100 µM | 17500 nM | > 77.1 µM | – | > 73.1 | 59600 nM | > 100 µM | – | > 93.9 µM | – | 78.5
20 | CSc1cnn(CCC#N)c(=O)n1 | – | > 100 µM | – | > 100 µM | – | – | – | > 100 | – | > 100 µM | – | > 100 µM | – | – | – | > 100 µM | – | > 100 µM | – | > 100
21 | CCN(CC)CCCNc1cccc2c(SCc3ccccc3)ccnc12 | 1510 nM | 3.1 µM | – | – | 2.62 µM | 8.29 µM | 1750 nM | 3.38 | 1560 nM | 2.99 µM | 1930 nM | 4.29 µM | 1720 | 3.82 | 2200 nM | 6.31 µM | 1870 nM | 3.44 µM | 907 nM | 2.3
